# “Also recorded” adds a separate entry of the source.
# Columns and labels:
# [1] = tested on: NF-κB; test: EMSA for NF-κB on nuclear extracts from pancreatic tissue; format: in vivo, rat; settings: for NF-κB activation in the pancreas: rat
# Method: Specifically, aliquots of nuclear extracts with equal amounts of protein (about 2 to about 10 mg) were mixed in 20 μl reactions with a buffer containing 10 mM HEPES (pH 7.8), 50 mM KCl, 0.1 mM EDTA, 1 mM DTT, 10% (vol/vol) glycerol, and 3 μg of poly(dI-dC).
# The samples were electrophoresed at room temperature in 0.5×TBE buffer (1× TBE: 89 mM Tris base, 89 mM boric acid, 2 mM EDTA) on a non-denaturing 4.5% polyacrylamide gel at 200 V. The gels were dried and directly analyzed in the PhosphorImager (Molecular Dynamics, Sunnyvale, Calif.).
# Nuclear protein extracts were prepared by methods known in the art. […] Briefly, samples of pancreatic tissue or isolated acini were rinsed in ice-cold PBS and homogenized in hypotonic Buffer A (20 mM β-glycerophosphate, 10 mM HEPES, pH 7.6, 1.5 mM MgCl2, 10 mM KCl, 10 mM Na2MoO4, 0.1 mM Na3VO4, 1 mM dithiothreitol (DTT), 1 mM phenylmethylsulfonyl fluoride (PMSF), 5 μg/ml each of protease inhibitors pepstatin, leupeptin, chymostatin, antipain and aprotinin). After incubating on ice for about 20 to about 25 minutes, the nonionic detergent Igepal CA-630 (Sigma, St. Louis, Mo.) was added to a final concentration of 0.3 to 0.4% (v/v), followed by an additional incubation on ice for about 1 to about 2 minutes. The crude nuclear pellet was collected by microcentrifugation for 30 seconds. The supernatant (cytosolic protein) was removed, and the nuclear pellet was resuspended in the high-salt buffer C (25% glycerol, 20 mM β-glycerophosphate, 10 mM HEPES, 1.5 mM MgCl2, 420 mM NaCl, 0.2 mM EDTA, 10 mM Na2MoO4, 0.1 mM Na3VO4, 1 mM DTT, 1 mM PMSF, 5 μg/ml each of protease inhibitors pepstatin, leupeptin, chymostatin, antipain and aprotinin. After rotating at 4° C. for up to 1 hour, nuclear membranes were pelleted by microcentrifugation for 10 minutes, and the clear supernatant (nuclear extract) was aliquoted and stored at −80° C. Protein concentration in the nuclear extract was determined by the Bio-Rad protein assay (Bio-Rad Laboratories, Hercules, Calif.).
# [2] = tested on: caspase-3; test: Caspase-3-like (DEVDase) activity in pancreatic tissue lysates; format: in vivo, rat; settings: for Caspase-3-like (DEVDase) activity versus pancreatitis without curcumin: p<0.05; for augmentation of the increase in DEVDase activity: rat pancreas
# Method: […] activity was measured by methods known in the art. See Gukovskaya A S, et al. (2002). Briefly, samples of pancreatic tissue were rinsed with ice-cold PBS and homogenized in a lysis buffer comprising 150 mM NaCl, 50 mM Tris-HCL (pH 7.5), 0.5% Igepal CA-630 (Sigma, St. Louis, Mo.), and 0.5 mM EDTA. Lysates were centrifuged for 10 minutes at 16,000× g and the supernatants were collected. Caspase activity was determined at 37° C. in a buffer comprising 25 mM HEPES (pH 7.5), 10% sucrose, 0.1% CHAPS, 10 mM DTT and […] Ac-DEVD-AMC, a specific fluorogenic substrate for measurement of caspase-3-like activity (AnaSpec, San Jose, Calif.). Cleavage of the substrate releases AMC that emits a fluorescent signal with excitation at 380 nm and emission at 440 nm. Fluorescence was calibrated using a standard curve for AMC. The data were expressed as mol AMC/min/mg protein.
# [3] = tested on: NF-κB; test: Curcumin and N-acetylcysteine alone and in combination, NF-κB activation in CCK-stimulated acinar cells; format: cell-based, rat; settings: curcumin 50 μM alone, 0.1 μM CCK
# Method: To measure the effects of curcumin compounds and ROS inhibitors, EMSAs and nuclear protein extractions were conducted as provided above. […] EMSAs for NF-κB activation were performed on nuclear proteins extracted from each sample.
# [4] = tested on: isolated acinar cells; test: Amylase secretion in isolated acinar cells; format: cell-based, rat; settings: 100 μM curcumin, versus absence
# Method: The effect of curcumin on amylase secretion in isolated acinar cells was assayed. Specifically, acinar cells were isolated using a collagenase digestion technique known in the art. Animals were sacrificed with CO2. The pancreas was removed and trimmed from mesentary and fat. […]
# Amylase secretion was measured. […] Amylase activity was measured in each supernatant sample as well as the cellular sample and values for amylase release were calculated as the percentage of amylase activity in the cells at the beginning of the experiment that was release into the media during the experiment.
# The absorbance was read with a spectrophotometer at 405 nm at 37° C. and the amylase activity in the samples was calculated by subtracting initial from the final readings. […]
structure (smiles),measurement,setting,value
COc1cc(/C=C/C(=O)CC(=O)/C=C/c2ccc(O)c(OC)c2)ccc1O [curcumin],NF-κB activation in the pancreas,[1]; cerulein pancreatitis,inhibits; also recorded: attenuated
same,NF-κB activity in the pancreas of control rats,[1]; control (vehicle-infused) rats treated with curcumin,Virtually no NF-κB activity was detected
same,NF-κB activation in the pancreas,[1]; ethanol/CCK pancreatitis,inhibits
same,Caspase-3-like (DEVDase) activity versus pancreatitis without curcumin,[2]; EtOH+CCK pancreatitis,significantly higher
same,augmentation of the increase in DEVDase activity,[2]; EtOH+CCK pancreatitis,greater than 2 fold
same,Caspase-3-like (DEVDase) activity versus pancreatitis without curcumin,[2]; cerulein pancreatitis,significantly higher
same,augmentation of the increase in DEVDase activity,[2]; cerulein pancreatitis,greater than 2 fold
same,inhibition of NF-κB activation in CCK-stimulated acinar cells,[3],very little inhibition
same,amylase release elicited by maximal (1 nM) and supramaximal (100 nM) CCK-8,[4],the same

# — patent US7060733B2, “Methods for treating pancreatitis with curcumin compounds and inhibitors of reactive oxygen species” (The Regents of the University of California, priority 2002, dated 2006)
